We go through 3 molecules from US9809623B2, “α4β7 peptide monomer and dimer antagonists” (Protagonist Therapeutics, Inc., priority 2014, dated 2017).

Each structure is given as a SMILES string. Numbered stars: 1 amine (or outer) side, 2 acyl side, 3 side chain; on linkers, the order of the positions; unused ones are H or OH. Bridge positions count the residues as written; N and C are the ends. Square brackets hold non-standard residues; d marks the D form. Peptide text beside a SMILES is read from it. I, II: the chains in the order shown. 1Nal = N[C@@H](Cc1cccc2ccccc12)C(=O)O; Diglycolyl = O=C(COCC(=O)[*:2])[*:1]; NMeR = CN[C@@H](CCCNC(=N)N)C(=O)O; Pen = CC(C)(S)[C@H](N)C(=O)O; dNMeK = CN[C@H](CCCCN)C(=O)O Some results are limits rather than exact numbers.

For one data set, the target named is T1, α4β1 (Homo sapiens, UniProt P05556+P13612, DEL729-798).
T1 construct: purchased R&D Systems 5668-A4
Kind of data set: α4β1-VCAM Competition ELISA. It counts as binding. The conditions noted are these: Table 3-B, Selectivity (α4β1); range classes; read-out: α4β1 ELISA IC50. The essentials: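 Recombinant α4β1 (60 nM final) competed with serially diluted peptides (top final 100 μM) for VCAM-1 Fc coated at 400 ng/well, in Tris pH 7.6 with 1 mM MnCl2 or MgCl2, for 2 h at 37 °C. Bound integrin was detected with anti-CD49d 9F10 plus HRP anti-mouse IgG, using TMB read at 450 nm.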
For orientation: An ELISA detects its analyte on a solid surface through an enzyme-linked reagent.

In the next data set the target is α4β7 (Homo sapiens, UniProt P13612+P26010). Description: α4β7-MAdCAM Cell Adhesion Assay (RPMI 8866 human cells). In kind it is cell-based. Set-up: host or cells: RPMI 8866 human B lymphoblastoid cells. The settings on record: Table 3-B, Potency (α4β7); range classes; read-out: α4β7 cell (Hu) IC50. The essentials:
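Washed RPMI 8866 cells (200,000/well) in DMEM with 0.1% BSA, 10 mM HEPES pH 7, 1 mM MnCl2 adhered to rh MAdCAM-1/Fc-coated wells with serially diluted peptides, 30-45 min at 37 °C. After three washes, bound cells quantified by MTT, A570, cell-free background subtracted for dose response.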

Data set [1] in a line: Simulated Intestinal Fluid (SIF) Stability Assay. The conditions noted are these: pig, simulated intestinal fluid (SIF) with 1% porcine pancreatin, pH 6.5, Table 3-B; > means experiment was stopped at that time and half life was not reached; read-out: Stabilty SIF t1/2. In kind it is in vitro ADME, porcine. The essentials:
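Peptides (22 μM final) incubated at 37 °C in FASSIF (pH 6.5) with 1% porcine pancreatin; aliquots quenched at various times and analyzed by LC-MS/MS against internal standard. Half-life from first-order exponential decay fit of percent remaining.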

A word on the IC50: it is the concentration that inhibits the measured activity by half.

Sequence of α4β7 (P13612 34-1032): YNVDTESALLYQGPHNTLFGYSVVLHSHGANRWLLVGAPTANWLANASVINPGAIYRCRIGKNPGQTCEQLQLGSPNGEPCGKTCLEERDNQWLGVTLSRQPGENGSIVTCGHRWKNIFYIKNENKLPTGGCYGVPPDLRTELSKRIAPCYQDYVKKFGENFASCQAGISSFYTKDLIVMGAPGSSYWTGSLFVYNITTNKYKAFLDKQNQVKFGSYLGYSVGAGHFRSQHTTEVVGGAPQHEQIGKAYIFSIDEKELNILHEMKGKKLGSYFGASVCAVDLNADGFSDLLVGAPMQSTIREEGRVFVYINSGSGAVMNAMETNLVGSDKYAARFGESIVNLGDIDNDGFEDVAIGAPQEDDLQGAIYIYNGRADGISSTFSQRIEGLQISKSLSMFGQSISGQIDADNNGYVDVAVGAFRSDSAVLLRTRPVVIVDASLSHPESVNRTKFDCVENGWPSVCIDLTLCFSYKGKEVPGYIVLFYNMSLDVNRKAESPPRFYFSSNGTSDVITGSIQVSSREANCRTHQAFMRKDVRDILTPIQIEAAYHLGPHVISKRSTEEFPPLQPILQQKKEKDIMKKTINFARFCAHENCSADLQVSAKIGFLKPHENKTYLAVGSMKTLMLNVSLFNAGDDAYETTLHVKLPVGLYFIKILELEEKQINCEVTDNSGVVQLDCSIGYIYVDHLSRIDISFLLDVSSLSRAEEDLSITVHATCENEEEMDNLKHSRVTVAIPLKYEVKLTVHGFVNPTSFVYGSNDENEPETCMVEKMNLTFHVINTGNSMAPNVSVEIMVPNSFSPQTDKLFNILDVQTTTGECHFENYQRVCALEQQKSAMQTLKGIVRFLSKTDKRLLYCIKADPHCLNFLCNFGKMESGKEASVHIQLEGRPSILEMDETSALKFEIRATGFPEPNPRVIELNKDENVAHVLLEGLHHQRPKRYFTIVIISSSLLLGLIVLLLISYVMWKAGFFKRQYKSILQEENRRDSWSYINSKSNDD
Sequence of α4β7 (P26010 20-798): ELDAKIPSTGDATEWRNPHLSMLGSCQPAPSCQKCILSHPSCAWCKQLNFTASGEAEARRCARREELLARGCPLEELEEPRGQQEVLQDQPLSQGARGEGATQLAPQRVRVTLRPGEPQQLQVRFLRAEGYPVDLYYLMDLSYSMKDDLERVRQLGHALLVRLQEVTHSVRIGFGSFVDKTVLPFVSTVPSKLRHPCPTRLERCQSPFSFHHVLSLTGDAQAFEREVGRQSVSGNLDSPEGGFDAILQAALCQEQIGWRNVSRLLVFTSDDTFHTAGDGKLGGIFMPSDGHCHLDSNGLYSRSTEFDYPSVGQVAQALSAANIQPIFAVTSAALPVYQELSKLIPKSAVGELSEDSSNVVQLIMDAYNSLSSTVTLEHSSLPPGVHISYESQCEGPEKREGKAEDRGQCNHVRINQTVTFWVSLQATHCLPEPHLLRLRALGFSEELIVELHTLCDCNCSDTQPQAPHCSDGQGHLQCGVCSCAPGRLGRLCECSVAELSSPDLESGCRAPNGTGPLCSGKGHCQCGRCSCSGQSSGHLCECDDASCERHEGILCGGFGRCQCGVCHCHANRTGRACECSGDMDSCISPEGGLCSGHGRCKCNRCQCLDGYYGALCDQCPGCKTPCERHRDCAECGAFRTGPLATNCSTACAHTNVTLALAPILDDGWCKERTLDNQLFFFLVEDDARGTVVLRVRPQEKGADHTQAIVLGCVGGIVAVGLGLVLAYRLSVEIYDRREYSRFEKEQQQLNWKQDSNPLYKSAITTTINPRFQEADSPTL
T1 sequence (P13612 34-977 limits assumed, stated change not applied): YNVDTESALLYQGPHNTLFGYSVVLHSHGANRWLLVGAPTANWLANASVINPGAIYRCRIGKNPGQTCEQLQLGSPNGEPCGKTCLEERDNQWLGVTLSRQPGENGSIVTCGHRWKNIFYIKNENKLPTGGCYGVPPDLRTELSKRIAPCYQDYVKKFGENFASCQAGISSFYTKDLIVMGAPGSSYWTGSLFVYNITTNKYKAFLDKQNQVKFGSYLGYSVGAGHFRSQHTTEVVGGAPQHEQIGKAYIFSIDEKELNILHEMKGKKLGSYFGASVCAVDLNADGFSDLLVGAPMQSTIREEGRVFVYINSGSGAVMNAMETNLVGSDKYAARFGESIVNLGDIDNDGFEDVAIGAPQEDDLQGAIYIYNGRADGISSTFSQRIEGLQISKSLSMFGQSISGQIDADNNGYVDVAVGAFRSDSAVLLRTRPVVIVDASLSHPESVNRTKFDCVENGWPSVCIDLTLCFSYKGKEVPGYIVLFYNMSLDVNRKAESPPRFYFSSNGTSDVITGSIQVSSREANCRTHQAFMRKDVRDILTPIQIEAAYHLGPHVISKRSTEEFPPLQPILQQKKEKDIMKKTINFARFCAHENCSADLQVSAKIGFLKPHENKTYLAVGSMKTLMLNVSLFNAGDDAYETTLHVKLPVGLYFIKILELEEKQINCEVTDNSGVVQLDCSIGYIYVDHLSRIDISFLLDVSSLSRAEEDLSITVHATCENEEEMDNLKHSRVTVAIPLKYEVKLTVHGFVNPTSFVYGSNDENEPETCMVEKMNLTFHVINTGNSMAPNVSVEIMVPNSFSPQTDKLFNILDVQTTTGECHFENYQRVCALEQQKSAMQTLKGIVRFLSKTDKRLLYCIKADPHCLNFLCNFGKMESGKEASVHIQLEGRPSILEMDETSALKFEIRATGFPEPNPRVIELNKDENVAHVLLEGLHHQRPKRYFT
T1 sequence (P05556 21-728 limits assumed, stated change not applied): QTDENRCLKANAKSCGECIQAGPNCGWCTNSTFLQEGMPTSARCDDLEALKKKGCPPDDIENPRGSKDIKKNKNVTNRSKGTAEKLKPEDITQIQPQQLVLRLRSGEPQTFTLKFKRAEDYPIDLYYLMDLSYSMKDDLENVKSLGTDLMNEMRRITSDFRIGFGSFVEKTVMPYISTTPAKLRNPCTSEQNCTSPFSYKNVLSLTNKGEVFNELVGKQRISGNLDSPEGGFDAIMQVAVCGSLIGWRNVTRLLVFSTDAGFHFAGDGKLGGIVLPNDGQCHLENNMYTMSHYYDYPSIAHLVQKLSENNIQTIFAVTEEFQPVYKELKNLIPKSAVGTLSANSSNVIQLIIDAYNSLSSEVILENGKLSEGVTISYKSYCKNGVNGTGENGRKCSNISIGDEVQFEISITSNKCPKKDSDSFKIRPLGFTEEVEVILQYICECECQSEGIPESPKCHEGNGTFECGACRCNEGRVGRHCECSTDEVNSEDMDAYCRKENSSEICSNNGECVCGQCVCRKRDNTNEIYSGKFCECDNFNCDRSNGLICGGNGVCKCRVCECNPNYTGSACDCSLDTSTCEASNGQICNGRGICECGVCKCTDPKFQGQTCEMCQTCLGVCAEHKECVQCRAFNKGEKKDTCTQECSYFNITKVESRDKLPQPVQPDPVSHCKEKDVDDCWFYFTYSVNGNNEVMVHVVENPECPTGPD

As to `CC(=O)N[C@@H]1C(=O)N(C)[C@@H](CCCNC(=N)N)C(=O)N[C@@H](CO)C(=O)N[C@@H](CC(=O)O)C(=O)N[C@@H]([C@@H](C)O)C(=O)N[C@@H](CC(C)C)C(=O)N[C@H](C(=O)N[C@@H](Cc2cccc3ccccc23)C(=O)N[C@@H](CCC(=O)O)C(=O)N(C)[C@H](CCCCNC(=O)COCC(=O)NCCCC[C@H](C(N)=O)N(C)C(=O)[C@H](CCC(=O)O)NC(=O)[C@H](Cc2cccc3ccccc23)NC(=O)[C@H]2NC(=O)[C@H](CC(C)C)NC(=O)[C@H]([C@@H](C)O)NC(=O)[C@H](CC(=O)O)NC(=O)[C@H](CO)NC(=O)[C@H](CCCNC(=N)N)N(C)C(=O)[C@@H](NC(C)=O)C(C)(C)SSC2(C)C)C(N)=O)C(C)(C)SSC1(C)C` [compound 44] (I: Ac-[Pen][NMeR]SDTL[Pen][1Nal]E[dNMeK]-NH2 / II: Ac-[Pen][NMeR]SDTL[Pen][1Nal]E[dNMeK]-NH2; disulfide I:1-I:7, II:1-II:7; linker I:10-II:10 via Diglycolyl), the IC50 at α4β1 is 100 to 500 nM; at α4β7, under 10 nM. The half-life at 22 μM in data set [1] was over 180 min.
Take `CC(=O)N[C@@H]1C(=O)N(C)[C@@H](CCCNC(=N)N)C(=O)N[C@@H](CO)C(=O)N[C@@H](CC(=O)O)C(=O)N[C@@H]([C@@H](C)O)C(=O)N[C@@H](CC(C)C)C(=O)N[C@H](C(=O)N[C@@H](Cc2c[nH]c3ccccc23)C(=O)N[C@@H](CCC(=O)O)C(=O)N[C@H](CCCCNC(=O)COCC(=O)NCCCC[C@@H](NC(=O)[C@H](CCC(=O)O)NC(=O)[C@H](Cc2c[nH]c3ccccc23)NC(=O)[C@H]2NC(=O)[C@H](CC(C)C)NC(=O)[C@H]([C@@H](C)O)NC(=O)[C@H](CC(=O)O)NC(=O)[C@H](CO)NC(=O)[C@H](CCCNC(=N)N)N(C)C(=O)[C@@H](NC(C)=O)C(C)(C)SSC2(C)C)C(N)=O)C(N)=O)C(C)(C)SSC1(C)C` [compound 67] (I: Ac-[Pen][NMeR]SDTL[Pen]WE[dK]-NH2 / II: Ac-[Pen][NMeR]SDTL[Pen]WE[dK]-NH2; disulfide I:1-I:7, II:1-II:7; linker I:10-II:10 via Diglycolyl): the IC50 on α4β1 is 100 to 500 nM; on α4β7, under 10 nM. Moreover, the half-life at 22 μM in data set [1] was 121 min.
With `CC(=O)N[C@@H]1C(=O)N(C)[C@@H](CCCNC(=N)N)C(=O)N[C@@H](CO)C(=O)N[C@@H](CC(=O)O)C(=O)N[C@@H]([C@@H](C)O)C(=O)N[C@@H](CC(C)C)C(=O)N[C@H](C(=O)N[C@@H](Cc2c[nH]c3ccccc23)C(=O)N[C@H](CCC(=O)O)C(=O)N[C@H](CCCCNC(=O)COCC(=O)NCCCC[C@@H](NC(=O)[C@@H](CCC(=O)O)NC(=O)[C@H](Cc2c[nH]c3ccccc23)NC(=O)[C@H]2NC(=O)[C@H](CC(C)C)NC(=O)[C@H]([C@@H](C)O)NC(=O)[C@H](CC(=O)O)NC(=O)[C@H](CO)NC(=O)[C@H](CCCNC(=N)N)N(C)C(=O)[C@@H](NC(C)=O)C(C)(C)SSC2(C)C)C(N)=O)C(N)=O)C(C)(C)SSC1(C)C` [compound 68] (I: Ac-[Pen][NMeR]SDTL[Pen]W[dE][dK]-NH2 / II: Ac-[Pen][NMeR]SDTL[Pen]W[dE][dK]-NH2; disulfide I:1-I:7, II:1-II:7; linker I:10-II:10 via Diglycolyl), the IC50 lay within 500 to 1000 nM at α4β1 and 25 to 50 nM on α4β7. Further, in data set [1], the half-life at 22 μM is over 300 min.
